Read-outs that look alike come from different tables or passages of the source.
Test system: P. falciparum 3D7 gametocytes
Assay: alamarBlue gametocyte viability assay, strain 3D7
Type: cell-based, Plasmodium falciparum
Details: for Max Resp: DMSO set at 0%, 100 nM epoxomicin set at -100%; call rule not given here
[1] = Malaria Box, stages III-V 3D7 gametocytes
[2] = Malaria Box, stages III-V 3D7 gametocytes, 11 concentrations, 1:3 dilution, read-out: IC50
[3] = Malaria Box, stages III-V 3D7 gametocytes, 11 concentrations, 1:3 dilution

Structure (SMILES)	Max Resp (Malaria Box)	Curve Class [1]	IC50 [2]	IC50 [3]	reduction of gametocyte viability (Malaria Box screen)	IC50 (P. falciparum 3D7 gametocytes, mean of at least 3 independent experiments, read-out: Gametocyte IC50)
OC(CNC1CCCC1)Cn1c2ccccc2c2ccccc21 (centres unmarked) [MMV000848]	-93%	-1.1	2.09 µM	–	–	–
O=C(Nc1nc(-c2ccccn2)cs1)c1ccccc1Br [MMV665909]	-65%	-2.2	18.7 µM	–	–	–
Cc1cccc(N2C(=O)C3C(C2=O)C2(c4ccccc4)C(=O)C3(c3ccccc3)C(c3ccc4c(c3)OCO4)=C2c2ccc3c(c2)OCO3)c1 (centres unmarked) [MMV007228]	-1%	4	–	Inactive	–	–
Cc1ccc(C)c(Cn2c(N3CCC(C(=O)NCc4cccs4)CC3)nc3ccccc32)c1 [MMV019741]	-65%	-2.2	37.2 µM	–	–	–
CCn1c(CN2CCN(Cc3ccccc3)CC2)nc2cc(NC(=O)c3cccs3)ccc21 [MMV020439]	-25%	4	–	Inactive	–	–
COc1ccc2nc(C)cc(Nc3cccc(O)c3)c2c1.Cl [MMV008212]	-64%	-2.2	29.6 µM	–	–	–
CSc1ccccc1C(=O)Nc1nc(-c2ccccn2)cs1 [MMV001246]	-72%	-2.2	11.8 µM	–	–	–
Cc1ccc(NC(=O)Nc2cccc(Cl)c2)cc1F [MMV000911]	-36%	-2.2	–	Inactive	–	–
Cc1cc(NC(=O)C2c3ccccc3C(=O)N(CC(C)C)C2c2cccs2)no1 (centres unmarked) [MMV006429]	-82%	-1.1	3.32 µM	–	–	–
O=C(NCC(c1ccsc1)N1CCCCCC1)c1ccc(C(F)(F)F)cc1 (centres unmarked) [MMV396672]	-37%	-2.2	–	Inactive	–	–
CCOc1cc(Br)c(C(C)NC(=O)c2cccc(OC)c2)cc1OCC (centres unmarked) [MMV665796]	-58%	-2.2	37.2 µM	–	–	–
CN(N=O)C1=C(NC2CCCCC2)C(=O)c2ccccc2C1=O [MMV667492]	-59%	-1.2	2.35 µM	–	–	–
COc1ccc(C(=O)Nc2nonc2-c2ccc(OC)c(OC)c2)cc1Cl [MMV011567]	1%	4	–	Inactive	–	–
CCN(CC)c1ccc(NC(=O)c2cccs2)cc1 [MMV009060]	20%	4	–	Inactive	–	–
CN(C)c1ccc(-c2nc3ccc(N)cc3[nH]2)cc1 [MMV666102]	-75%	-2.2	29.6 µM	–	–	–
COc1ccc(N2CCN(C(CNC(=O)CC(C)(C)C)c3ccc4c(c3)OCO4)CC2)cc1 (centres unmarked) [MMV665908]	-26%	4	–	Inactive	–	–
Cc1ccc(C(=O)c2oc3ccc4c(C)cc(=O)oc4c3c2C)cc1 [MMV086103]	0%	4	–	Inactive	–	–
Nc1nc(Nc2cccc(F)c2)nc2ccccc12 [MMV080034]	-61%	-2.2	29.6 µM	–	–	–
O=C(NC1CCCC1)c1ccc(N2CCC(NCc3cccc(C(F)(F)F)c3)CC2)cc1 [MMV666070]	-47%	-2.2	–	Inactive	–	–
CN1c2ccccc2N(C)C1c1ccc2c(c1)OCO2 [MMV666009]	-36%	-2.4	–	Inactive	–	–
COc1cccc(O)c1CN1CCC2(CCCN(Cc3ccc(F)cc3)C2)C1 (centres unmarked) [MMV666061]	-57%	-1.2	1.66 µM	–	–	–
O=C(Nc1ccc(Cl)cc1)N1CCN(c2ccc3nncn3n2)CC1 [MMV665917]	-1%	4	–	Inactive	–	–
O=[N+]([O-])c1ccc(C=NNc2nc3ccccc3[nH]2)cc1 [MMV666607]	-57%	-2.2	29.6 µM	–	–	–

Structure (SMILES)	Max Resp (Malaria Box)	Curve Class [1]	IC50 [2]	IC50 [3]	reduction of gametocyte viability (Malaria Box screen)	IC50 (P. falciparum 3D7 gametocytes, mean of at least 3 independent experiments, read-out: Gametocyte IC50)
CN1CCN(c2ccc(Nc3c4ccccc4nc4ccccc34)cc2)CC1 [MMV006172]	-98%	-1.1	1.48 µM	–	–	–
CC1CN(C(=O)c2sc3ccccc3c2Cl)CC(C)O1 (centres unmarked) [MMV020492]	-36%	-2.2	–	Inactive	–	–
Cc1ccc(-c2cc(C(=O)Nc3ccc(S(=O)(=O)N4CCCCC4)cc3)[nH]n2)c(O)c1 [MMV665906]	-61%	-1.2	5.26 µM	–	–	–
COc1ccc(-c2cc3c(nn2)-c2ccccc2C3=O)cc1 [MMV666026]	0%	4	–	Inactive	–	–
Cc1c(C)n(Cc2ccc(F)cc2)c2ccc(C(=O)NCc3ccco3)cc12 [MMV008149]	17%	4	–	Inactive	–	–
O=c1nc(C=Cc2ccc(Br)cc2)oc2ccccc12 [MMV666599]	4%	4	–	Inactive	–	–
Cc1ccc(CN2CCC(C(=O)Nc3ccc(-c4cc5ccccc5[nH]4)cc3)CC2)o1 [MMV666071]	-71%	-2.2	29.6 µM	–	–	–
Br.Cc1ccc(C)c(-c2csc(Nc3ccc(C)c(C)c3)n2)c1 [MMV007654]	-3%	4	–	Inactive	–	–
Cc1ccc2nc(C)cc(Nc3cccc(C(F)(F)F)c3)c2c1.Cl [MMV000326]	-52%	-2.2	–	Inactive	–	–
CC1=C(CC(=O)c2cccc([N+](=O)[O-])c2)C(=O)c2ccccc2C1=O [MMV666125]	-116%	-1.1	0.833 µM	–	> 75%	< 1 µM
Nc1ccc(-c2nc3cc(Cc4ccc5[nH]c(-c6ccc(N)cc6)nc5c4)ccc3[nH]2)cc1 [MMV665943]	-69%	-2.2	29.6 µM	–	–	–
Cc1ccc2cc3c(N)c4c(C)ccc(C)c4nc3nc2c1 [MMV666079]	-81%	-2.1	16.6 µM	–	–	–
COc1cccc(NC(=O)Cn2c(C)c(C#N)c3ccccc32)c1 [MMV665826]	-52%	-2.2	–	Inactive	–	–
O=C(Nc1ccc(F)c(Cl)c1)Nc1ccc(Cl)c(Cl)c1 [MMV665953]	-94%	-2.1	18.7 µM	–	–	–
N=c1n(CCN2CCCCC2)c2ccccc2n1CC(=O)c1ccc(Cl)c(Cl)c1 [MMV396723]	-92%	-2.1	14.8 µM	–	–	–
CC(C)c1ccc(CNCC(O)c2ccccc2)cc1.Cl (centres unmarked) [MMV001049]	-76%	-1.2	2.35 µM	–	–	–
Cc1cc(NC(=O)c2cccc(C(F)(F)F)c2)n(-c2nc(-c3ccc4c(c3)OCO4)cs2)n1 [MMV396681]	-3%	4	–	Inactive	–	–
COc1ccc(C2c3ccc4ccccc4c3Oc3ncn(CCCn4ccnc4)c(=N)c32)cc1OC (centres unmarked) [MMV667490]	-79%	-1.1	4.18 µM	–	–	–
CN(C)c1ccc(C=Cc2nc(=O)c3ccccc3o2)cc1 [MMV006309]	2%	4	–	Inactive	–	–
O=C(O)C(=O)O.Oc1ccccc1CN1CCN(C(c2ccccc2)c2ccccc2)CC1 [MMV011795]	-53%	-2.2	5.9 µM	–	–	–
O=C(CCc1ccco1)NC1CCN(CC2(c3ccc(Cl)cc3)CCC2)CC1 [MMV666108]	-51%	-2.2	–	Inactive	–	–
Cc1ccc(C2CC(C(F)(F)F)n3nc(C(=O)N4CCN(C(c5ccccc5)c5ccccc5)CC4)cc3N2)cc1 (centres unmarked) [MMV000699]	-70%	-2.2	29.6 µM	–	–	–
c1ccc(-c2ccc(-c3nc4ccccc4[nH]3)cc2)cc1 [MMV665891]	18%	4	–	Inactive	–	–
